From EP0041021A2, “Cyclopropane carboxylic acid derivatives, their preparation, their use against parasites in plants and animals, their compositions and their intermediates” (ROUSSEL-UCLAF, priority 1980, dated 1981)

How the values were obtained:
moustiques Culex pipiens = assay: Insecticidal activity on Culex pipiens mosquitoes, fumigant coil; format: in vivo; settings: fumigant coil, 0,60% active ingredient by weight of coil
Description: Exemple 6 : Etude de l'activité insecticide. sur moustiques Culex pipiens, du composé ce l'exemple 1 utilisé sous forme de serpentin fumigène.
Des supports neutres de serpentins fumigènes sont imprégnés de matière active en solution dans l'acétone. On lâche dans un cylindre fermé, en verre, de 13,50 dm3, 20 moustiques femelles agées de 4 à 5 jours et intrcduit, pendant 2 minutes, un serpentin fumigène se consumant à une extrémité. On effectue le contrôle de knock-down toutes les minutes et arrête 1.essai 5 minutes après que tous les insectes aient été abattus.

mouche domestique = assay: Knock-down activity on housefly, direct spray in Kearns and March cylinder; format: in vivo; settings: acetone (5%) + Isopar L
Description: Exemple 4 : Etude de l'activité de choc sur mouche domestique.
Les insectes tests sont des mouches domestiques femelles âgées de 4 à 5 jours. On opère par pulvérisation directe en cylindre de Kearns et March en utilisant comme solvant un mélange d'acétone (5%) et d'Isopar L (solvant pétrolier) (quantité de solvant utilisée 2 ml en une seconde). On utilise 50 insectes par dose. On effectue les contrôles toutes les minutes jusqu'à 10 minutes, puis à 15 minutes et l'on détermine le KT 50 par les méthodes habituelles.

## C=CCC1=C(C)[C@@H](OC(=O)[C@@H]2[C@H](/C=C\C(=O)OC)C2(C)C)CC1=O [Exemple 1, (R cis ΔZ) 2,2-diméthl-3/ 3-méthoxy-oxo-1-propenyl/cyclopropane carboxylatede (1S) 2-méthyl-4-oxo 3-(2-propenyl)-2-cyclopenten-1-yle]
Moustiques Culex pipiens
  effet létal: 98,3%
Moustiques Culex pipiens; 20 female mosquitoes, 13,50 dm3 cylinder
  ET 50: 5,42 mn
Mouche domestique; concentration 0,5 g/litre
  KT 50: 1,26 mn
Mouche domestique; concentration 0,25 g/litre
  KT 50: 2,02 mn
